# What was measured:
# [1] = target: T1, Bromodomain-containing protein 1 (Homo sapiens, UniProt O95696); assay: Inhibition of human BRPF2-BRD1 expressed in Escherichia coli BL21 after 1 hr by BROMOscan assay
# T1 sequence (O95696 whole entry): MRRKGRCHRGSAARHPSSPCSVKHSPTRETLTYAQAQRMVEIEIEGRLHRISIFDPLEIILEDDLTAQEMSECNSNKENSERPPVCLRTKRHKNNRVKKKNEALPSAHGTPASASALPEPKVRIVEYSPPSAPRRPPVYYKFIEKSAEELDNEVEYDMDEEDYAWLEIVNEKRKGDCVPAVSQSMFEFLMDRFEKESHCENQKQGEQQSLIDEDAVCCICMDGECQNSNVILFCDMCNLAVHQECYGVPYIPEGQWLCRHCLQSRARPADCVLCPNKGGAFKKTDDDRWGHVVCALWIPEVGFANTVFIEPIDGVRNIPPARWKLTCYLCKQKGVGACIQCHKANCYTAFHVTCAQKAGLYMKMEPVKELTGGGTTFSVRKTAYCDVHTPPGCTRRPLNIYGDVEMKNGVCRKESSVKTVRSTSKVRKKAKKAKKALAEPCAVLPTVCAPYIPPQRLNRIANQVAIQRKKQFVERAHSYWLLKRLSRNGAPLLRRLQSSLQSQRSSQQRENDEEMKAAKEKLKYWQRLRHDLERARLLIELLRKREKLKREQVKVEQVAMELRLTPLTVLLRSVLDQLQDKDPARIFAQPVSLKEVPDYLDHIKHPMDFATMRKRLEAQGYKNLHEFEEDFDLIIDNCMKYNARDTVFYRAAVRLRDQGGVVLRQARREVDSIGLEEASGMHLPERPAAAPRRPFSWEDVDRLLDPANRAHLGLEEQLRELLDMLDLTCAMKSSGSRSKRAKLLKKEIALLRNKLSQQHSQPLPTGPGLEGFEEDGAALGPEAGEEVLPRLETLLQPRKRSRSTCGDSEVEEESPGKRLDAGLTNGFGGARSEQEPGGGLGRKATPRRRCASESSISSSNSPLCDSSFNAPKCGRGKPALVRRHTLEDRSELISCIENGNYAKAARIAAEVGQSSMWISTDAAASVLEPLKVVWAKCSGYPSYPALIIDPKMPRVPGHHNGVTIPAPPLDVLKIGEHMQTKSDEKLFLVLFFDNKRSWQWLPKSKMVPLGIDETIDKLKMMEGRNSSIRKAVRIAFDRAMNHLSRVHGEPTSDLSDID
# [2] = target: T2, Bromodomain-containing protein 4 (Homo sapiens, UniProt O60885); assay: Inhibition of human BRD4-BD1 expressed in Escherichia coli BL21 after 1 hr by BROMOscan assay
# [3] = target: T3, Bromodomain and PHD finger-containing protein 3 (Homo sapiens) (UniProt Q9ULD4)
# T3 sequence (whole entry): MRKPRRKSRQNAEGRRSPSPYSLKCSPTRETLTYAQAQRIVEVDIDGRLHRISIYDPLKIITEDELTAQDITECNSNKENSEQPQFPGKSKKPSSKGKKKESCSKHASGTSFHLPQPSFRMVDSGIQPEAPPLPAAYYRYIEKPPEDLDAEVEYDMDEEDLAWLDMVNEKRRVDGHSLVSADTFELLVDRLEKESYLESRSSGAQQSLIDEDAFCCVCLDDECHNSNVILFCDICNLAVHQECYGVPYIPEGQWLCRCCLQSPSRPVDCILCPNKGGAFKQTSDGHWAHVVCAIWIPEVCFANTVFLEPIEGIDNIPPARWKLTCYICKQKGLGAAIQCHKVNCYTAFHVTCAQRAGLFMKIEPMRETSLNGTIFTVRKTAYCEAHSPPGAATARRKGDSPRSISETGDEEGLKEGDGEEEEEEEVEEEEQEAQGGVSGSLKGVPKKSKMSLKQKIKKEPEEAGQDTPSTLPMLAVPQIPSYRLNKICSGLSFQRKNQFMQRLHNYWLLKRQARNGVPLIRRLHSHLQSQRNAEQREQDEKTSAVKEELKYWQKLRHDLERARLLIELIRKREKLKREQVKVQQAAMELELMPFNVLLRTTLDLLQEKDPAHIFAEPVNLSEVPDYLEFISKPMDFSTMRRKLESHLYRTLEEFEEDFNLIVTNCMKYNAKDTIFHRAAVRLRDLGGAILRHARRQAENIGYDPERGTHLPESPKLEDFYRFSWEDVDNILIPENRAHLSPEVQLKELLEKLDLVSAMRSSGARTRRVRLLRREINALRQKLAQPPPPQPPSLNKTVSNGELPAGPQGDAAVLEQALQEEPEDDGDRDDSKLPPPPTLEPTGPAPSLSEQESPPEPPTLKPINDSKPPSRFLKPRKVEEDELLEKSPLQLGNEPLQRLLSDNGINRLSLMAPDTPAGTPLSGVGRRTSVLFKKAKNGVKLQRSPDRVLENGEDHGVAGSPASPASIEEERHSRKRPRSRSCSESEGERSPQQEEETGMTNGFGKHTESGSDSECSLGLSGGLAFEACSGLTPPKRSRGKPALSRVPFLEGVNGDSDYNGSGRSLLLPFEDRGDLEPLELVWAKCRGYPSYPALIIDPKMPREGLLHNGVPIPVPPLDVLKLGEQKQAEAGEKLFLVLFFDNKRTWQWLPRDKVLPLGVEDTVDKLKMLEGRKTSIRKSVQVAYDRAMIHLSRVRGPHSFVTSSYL
# [4] = target: T4, Bromodomain-containing protein 1 (Homo sapiens) (UniProt O95696)
# T4 sequence (whole entry): T1 sequence (O95696 whole entry)
# [5] = target: T2, Bromodomain-containing protein 4; assay: Inhibition of human His tagged BRD4-BD1 incubated for 30 mins followed by addition of biotinylated peptide and further incubation for 30 mins measured by AlphaScreen assay
# [6] = target: Bromodomain-containing protein 7 (Homo sapiens, UniProt Q9NPI1); assay: Inhibition of human BRD7 expressed in Escherichia coli BL21 after 1 hr by BROMOscan assay
# Sequence of Bromodomain-containing protein 7 (Q9NPI1 whole entry): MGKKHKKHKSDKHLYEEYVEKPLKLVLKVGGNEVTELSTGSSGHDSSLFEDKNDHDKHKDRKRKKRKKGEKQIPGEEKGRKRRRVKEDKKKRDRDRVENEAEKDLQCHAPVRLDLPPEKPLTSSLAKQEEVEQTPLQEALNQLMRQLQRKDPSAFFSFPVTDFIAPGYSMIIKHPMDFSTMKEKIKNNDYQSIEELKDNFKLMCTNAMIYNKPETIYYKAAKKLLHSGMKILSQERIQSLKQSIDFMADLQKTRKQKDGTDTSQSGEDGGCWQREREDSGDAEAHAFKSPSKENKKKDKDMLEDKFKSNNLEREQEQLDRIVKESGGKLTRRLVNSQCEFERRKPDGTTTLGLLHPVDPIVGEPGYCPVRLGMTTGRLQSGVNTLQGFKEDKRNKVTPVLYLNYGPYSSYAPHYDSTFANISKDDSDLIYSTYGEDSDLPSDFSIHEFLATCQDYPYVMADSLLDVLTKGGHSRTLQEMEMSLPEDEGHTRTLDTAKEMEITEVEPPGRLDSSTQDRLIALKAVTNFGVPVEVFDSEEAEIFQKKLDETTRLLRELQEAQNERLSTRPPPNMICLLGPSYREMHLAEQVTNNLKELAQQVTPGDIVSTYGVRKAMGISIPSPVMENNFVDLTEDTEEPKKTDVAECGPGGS
Structure (SMILES),IC50 [1],IC50 [2],ΔTm [3],ΔTm [4],IC50 [5],IC50 [6]
Cn1c(=O)ccc2cc(NS(=O)(=O)c3ccc(C#N)c(Cl)c3)ccc21,0.45 µM,7.2 µM,,,,
Cc1cc(C#N)ccc1S(=O)(=O)Nc1ccc2c(ccc(=O)n2C)c1,,,2.4 °C,3.4 °C,,
COc1ccccc1C(=O)Nc1cc2cc(C)c(=O)n(C)c2cc1N1CCCC1,2.6 µM,4.6 µM,,,,
Cc1cc2cc(NS(=O)(=O)c3ccc(C#N)cc3)ccc2n(C)c1=O,0.048 µM,4.5 µM,4.5 °C,5.1 °C,> 20 µM,0.082 µM

# Results, then the molecule that gave them:
IC50 [1],IC50 [2],ΔTm [3],ΔTm [4],IC50 [5],IC50 [6],Structure (SMILES)
1.8 µM,17 µM,,,,,COc1cc2c(cc1NS(=O)(=O)c1ccc(C#N)cc1)c(C)cc(=O)n2C
> 100 µM,> 100 µM,,,> 20 µM,> 100 µM,CCc1cc2cc(NS(=O)(=O)c3ccc(C#N)cc3)ccc2n(CC)c1=O

# — ChEMBL document CHEMBL4052588, “Design of a Biased Potent Small Molecule Inhibitor of the Bromodomain and PHD Finger-Containing (BRPF) Proteins Suitable for Cellular and in Vivo Studies” (J Med Chem, 2017)
